# Experimental data from US5882851A, “Cytochrome P-450 monooxygenases” (Novartis Finance Corporation, priority 1993, dated 1999).
# Target: T1, cytochrome P-450TYR (Sorghum bicolor, UniProt Q43135)
# T1 construct: from tissue; host or cells: microsomes of etiolated Sorghum bicolor seedlings, solubilised and purified by dye columns
# T1 sequence (Q43135 1-558): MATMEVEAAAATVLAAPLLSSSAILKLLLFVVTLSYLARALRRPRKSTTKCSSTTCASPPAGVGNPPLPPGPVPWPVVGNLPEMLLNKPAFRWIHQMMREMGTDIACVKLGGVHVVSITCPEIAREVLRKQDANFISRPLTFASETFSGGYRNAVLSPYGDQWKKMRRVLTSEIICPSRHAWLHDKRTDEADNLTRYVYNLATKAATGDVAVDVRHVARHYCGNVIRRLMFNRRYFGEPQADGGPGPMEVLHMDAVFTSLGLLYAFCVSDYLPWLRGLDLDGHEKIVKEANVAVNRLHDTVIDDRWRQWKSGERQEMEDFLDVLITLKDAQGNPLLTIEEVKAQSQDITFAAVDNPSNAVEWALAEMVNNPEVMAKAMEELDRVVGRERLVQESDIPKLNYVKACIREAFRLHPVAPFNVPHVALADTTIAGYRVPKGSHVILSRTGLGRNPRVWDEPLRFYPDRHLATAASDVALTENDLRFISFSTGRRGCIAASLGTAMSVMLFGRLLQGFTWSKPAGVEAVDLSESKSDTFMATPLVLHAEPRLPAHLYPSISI
# Test: Substrate binding spectra of isolated sorghum cytochrome P-450TYR (difference spectrum A390-420)
# Procedure: Cytochrome P-450 substrate binding spectra are recorded with stepwise increased substrate concentration until saturating conditions are reached.
# Cytochrome P-450TYR in the oxidized state has a strong absorption peak at 420 nm, representing the low spin state of the iron of the heme group. The binding of a ligand to the heme group shifts the absorption maximum by changing the spin state of the iron. […] The following experimental procedure is used to obtain the substrate binding spectrum: two identical cuvettes containing a buffered solution of the isolated cytochrome P-450 are prepared. The substrate of the enzyme is added to the sample cuvette whereas the same volume of buffer is added to the other cuvette. The difference spectrum is then recorded in an SLM-Aminco DW2c spectrophotometer. The absorption difference, A390-420, is proportional to the concentration of cytochrome P-450TYR with a bound substrate at its active site. If a saturating concentration of substrate is added to the sample cuvette, the absorption difference is proportional to the concentration of the substrate specific cytochrome P-450 in the cuvettes. The saturating concentration of the substrate is determined by titrating the cytochrome P-450 sample with increasing amounts of substrate and monitoring A390-420.
# If a cytochrome P-450 sample can be saturated with two different substrates, there may be two different cytochrome P-450 enzymes in the sample, or there may be one cytochrome P-450 enzyme able to bind to both substrates. To discriminate between these possibilities, saturating amounts of the two substrates are added sequentially and the A390-420absorption change is monitored. If, independent of the order of addition, the addition of the second sample gives rise to an increased A390-420value compared to the value after the addition of the first substrate, the two substrates are bound by different enzymes. If A390-420 remains unchanged upon addition of the second substrate, independent of the order of addition, both substrates bind to the same active site, i.e. to the same cytochrome P-450 enzyme.
compound,measurement,setting,value
"N[C@@H](Cc1ccc(O)cc1)C(=O)O [tyrosine, L-tyrosine]",initial A390-420,30 μl 5 mM tyrosine added to 500 μl P-450TYR,"0,0437"
same,resulting A390-420,"30 μl 5 mM tyrosine, dilution factor 530/500","0,0463"
same,initial A390-420,60 μl 5 mM tyrosine,"0,0496"
same,resulting A390-420,"60 μl 5 mM tyrosine, dilution factor 560/500","0,0556"
same,initial A390-420,90 μl 5 mM tyrosine,"0,0486"
same,resulting A390-420,"90 μl 5 mM tyrosine, dilution factor 590/500","0,0573"
same,type of substrate binding spectrum,isolated sorghum P-450TYR,type I binding spectrum
